Experimental data from patent publication US20080096884A1, “4-Aminoquinoline-3-Carboxamide Derivatives as Pde4 Inhibitors” (priority 2003, published 2008).

Columns and labels:
[1] = molecular target: T1, PDE4B (human recombinant) (Homo sapiens, UniProt Q07343); assay: Inhibition of PDE4B catalytic activity (SPA or IMAP FP assay); format: biochemical; conditions: SPA or FP assay not specified, read-out: PDE4B mean pIC50 (converted)
T1 construct: made in house; host or cells: Saccharomyces cerevisiae strain GL62 (as described in the cited WO 94/20079)
T1 sequence (Q07343 1-564 isoform Q07343-2): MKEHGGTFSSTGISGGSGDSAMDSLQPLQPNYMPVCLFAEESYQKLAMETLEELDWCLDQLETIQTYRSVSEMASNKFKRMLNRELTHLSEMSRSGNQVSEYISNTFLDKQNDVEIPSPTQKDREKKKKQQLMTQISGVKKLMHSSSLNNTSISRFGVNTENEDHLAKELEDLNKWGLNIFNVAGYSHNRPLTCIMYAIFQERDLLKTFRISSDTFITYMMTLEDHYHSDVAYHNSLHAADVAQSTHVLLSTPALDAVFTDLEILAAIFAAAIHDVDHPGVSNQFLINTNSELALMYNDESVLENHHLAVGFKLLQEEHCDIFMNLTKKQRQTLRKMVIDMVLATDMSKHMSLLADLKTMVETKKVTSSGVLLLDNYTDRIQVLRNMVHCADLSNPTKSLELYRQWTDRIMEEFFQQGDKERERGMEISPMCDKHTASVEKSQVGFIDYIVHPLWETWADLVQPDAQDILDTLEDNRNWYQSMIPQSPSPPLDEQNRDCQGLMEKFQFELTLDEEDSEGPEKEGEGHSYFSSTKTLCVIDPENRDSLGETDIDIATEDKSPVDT
Text: Human recombinant PDE4B, in particular the 2B splice variant thereof (HSPDE4B2B), is disclosed in WO 94/20079 and also in M. M. McLaughlin et al., “A low Km, rolipram-sensitive, cAMP-specific phosphodiesterase from human brain: cloning and expression of cDNA, biochemical characterisation of recombinant protein, and tissue distribution of mRNA”, J. Biol. Chem., 1993, 268, 6470-6476. […]
(§1) The ability of compounds to inhibit catalytic activity at PDE4B or 4D (human recombinant), PDE3 (from bovine aorta) PDE5 (human recombinant) or PDE 6 (from bovine retina) may be determined by Scintillation Proximity Assay (SPA) in 96-well format. […] Bound radioactive product was measured using a WALLAC TRILUX 1450 MicroBeta scintillation counter. […] Curves were analysed using ActivityBase and XLfit (ID Businesss Solutions Limited, 2 Ocean Court, Surrey Research Park, Guildford, Surrey GU2 7QB, United Kindgom). Results were expressed as pIC50 values.
The ability of compounds to inhibit catalytic activity at PDE4B (human recombinant) and PDE4D (human recombinant) was determined by IMAP Fluorescence Polarisation (FP) assay (Molecular Devices Ltd code: R8062) in 384-well format. […]
Fluorescein adenosine 3′,5′-cyclic phosphate (Molecular Devices Ltd code: R7091) was added to give ˜40 nM final concentration. […] Curves were analysed using ActivityBase and XLfit (ID Businesss Solutions Limited). […]

[2] = molecular target: PDE5 (human recombinant) (Homo sapiens, UniProt O76074); assay: Inhibition of PDE5 catalytic activity (SPA); format: biochemical; conditions: read-out: PDE5 mean pIC50 (converted)
Text: Human recombinant PDE5 is disclosed in K. Loughney et al., “Isolation and characterisation of cDNAs encoding PDE5A, a human cGMP-binding, cGMP-specific 3′,5′-cyclic nucleotide phosphodiesterase”, Gene, 1998, 216, 139-147.
as §1, with “format. Test compounds (preferably as a solution in DMSO, e.g. 2 microlitre (μl) volume) were preincubated at ambient temperature in Wallac Isoplates (code 1450-514) with PDE enzyme in 50 mM Tris-HCl buffer pH 7.5, 8.3 mM MgCl2, 1.7 mM EGTA, 0.05% (w/v) bovine serum albumin for 10-30 minutes. The enzyme concentration was adjusted so that control rates are linear over the asay incubation period.” for “format.”

| SMILES | IC50 [1] | IC50 [2] |
| --- | --- | --- |
| COc1cccc(Nc2c(C(N)=O)cnc3ccc(S(=O)(=O)N(C)C)cc23)c1 [Example 2, 6-[(dimethylamino)sulfonyl]4-{[3-(methyloxy)phenyl]amino}-3-quinolinecarboxamide] | 0.001 µM | 15.8 µM |
| NC(=O)c1cnc2ccc(S(=O)(=O)N3CCOCC3)cc2c1Nc1cccc(Cl)c1 [Example 4] | 0.00251 µM | 12.6 µM |
